Data published in patent publication US11160813B2, “Combination therapy for nonalcoholic steatohepatitis (NASH) and liver fibrosis” (Modunex Bio Corp., priority 2016, dated 2021).
“Also recorded” adds a separate entry of the source. Where two headings read alike, the source gives them in different places.

How the values were obtained:
[1] = test system: mouse model of NASH; assay: mouse model of NASH and fibrosis induced by streptozocin and high fat diet; format: in vivo, C59BL/6J mice; details: for NAS score: alone or in combination; for liver enzyme AST / liver enzyme ALP: OCA
Procedure: We have utilized a well validated mice model in which the NASH and fibrosis was induced by sequential induction of diabetes mellitus and a high fat diet (14). On day 2, C59BL/6J mice were injected with streptozocin, then treated with high fat diet from week 4 until week 9. The intervention treatment started from week 5 until week 9. On week 9, these mice were euthanized.
NAS scores were determined according to the consensus by Nonalcoholic Steatohepatitis Clinical Research Network (13)
Fibrosis scores were determined according to the consensus by Nonalcoholic Steatohepatitis Clinical Research Network (13).

[2] = cited from earlier work; for pruritus: placebo 38%
[3] = cited from earlier work
[4] = cited from earlier work; remark: listed apart in the source
[5] = cited from earlier work; remark: listed apart in the source
[6] = recent studies; cited from earlier work
[7] = test system: CCR5; details: animal model; cited from earlier work
[8] = HIV patients with HCV infection; cited from earlier work
[9] = FIG. 7B, MK-0812, alone or together

## CO[C@@H]1COCC[C@@H]1N[C@@H]1CC[C@@](C(=O)N2CCc3ncc(C(F)(F)F)cc3C2)(C(C)C)C1 [MK-0812]
[1]; FIG. 1B, OCA and MK-0812 (10 mg twice daily)
  NAS score: modest reduction of NAS scores; also recorded: little effect
[1]; FIG. 2B, OCA and MK-0812
  fibrosis evidenced by staining of collagen (liver histology): reduction of fibrosis
[1]; FIG. 3B to 7B
  results in the NASH model when a CCR2 antagonist was used instead of MVC: Comparable results
[1]; FIG. 3B, OCA and MK-0812, combination with half dose OCA and MK-0812 10 mg twice daily
  fibrosis score: reduction of fibrosis score
[1]; FIG. 4B, OCA and MK-0812
  liver inflammation: reduction of liver inflammation
[1]; FIG. 5B, OCA and MK-0812
  hepatocyte ballooning score: reduction of hepatocyte ballooning score
[1]; FIG. 6B, full dose OCA, MK-0812 alone
  steatosis: no apparent effect on steatosis
[1]; [9]
  liver enzyme AST: not observed

## CC[C@H]1[C@@H](O)[C@@H]2[C@H](CC[C@]3(C)[C@@H]([C@H](C)CCC(=O)O)CC[C@@H]23)[C@@]2(C)CC[C@@H](O)C[C@@H]12 [OCA, 6 α-ethyl-chemodeoxycholic acid]
[2]; 10 mg once daily
  pruritus: 56%
[2]; dose related
  HDL: dose related reduction in HDL; also recorded: reduction of HDL
[2]; patients receiving OCA
  severe pruritus: 19-23%
[2]; reported frequency
  frequency of pruritus: up to 80%
[2]; titration regimen
  pruritus: 70%
[1]; FIG. 7A, MVC, alone or together
  liver enzyme AST: elevation in AST and ALP liver enzymes; also recorded: elevation of the liver enzyme AST
[1]; [9]
  liver enzyme AST: elevation of the liver enzyme AST
[1]; FIG. 8A, MVC, alone or together
  liver enzyme ALP: elevation in AST and ALP liver enzymes; also recorded: elevation of the liver enzyme ALP
[1]; FIG. 8B, MK-0812
  liver enzyme ALP: elevation of the liver enzyme ALP
[3]; 26-week oral, rats
  bile duct histology: bile duct hyperplasia
  clinical chemistry parameters: increases in ALT, AST and ALP
  liver weight: increased liver weight
[3]; rat, in vivo
  safety margin relative to recommended human dose: 2.3 fold
[4]; 10 mg group, placebo 2.4
  exposure-adjusted incidence for all serious and otherwise clinically significant liver-related adverse reactions and isolated elevations in liver biochemical test: 5.2 per 100 patient exposure years (PEY)
[4]; 25 mg group
  exposure-adjusted incidence for all serious and otherwise clinically significant liver-related adverse reactions and isolated elevations in liver biochemical test: 19.8%
[4]; 50 mg group
  exposure-adjusted incidence for all serious and otherwise clinically significant liver-related adverse reactions and isolated elevations in liver biochemical test: 54.5%
[5]; 9-month oral, dogs
  ALT levels: elevated ALT levels
[5]; dog, in vivo, po
  clinical signs of toxicity that could be associated with liver function: yellow discoloration of skin, mucous membrane, and eyes

## CCCCOCCOc1ccc(-c2ccc3c(c2)/C=C(/C(=O)Nc2ccc([S@@+]([O-])Cc4cncn4CCC)cc2)CCCN3CC(C)C)cc1 [cenicriviroc]
[6]
  effect on NASH: marginal effect on NASH
  effect on fibrosis: relatively more significant effect on fibrosis

## maraviroc [MVC]
[7]
  NAS score and fibrosis: effective in an animal model for reducing NAS score and fibrosis
[1]; FIG. 1A, maraviroc 45 mg/kg once daily orally, OCA 30 mg/kg once daily, 4 wks
  NAS score: modest reduction of NAS scores
[1]; FIG. 1A, maraviroc 45 mg/kg once daily orally, OCA 30 mg/kg once daily, 4 wks, listed as maravoric
  NAS score: limited effect on the NAS score
[1]; FIG. 2A, maraviroc 45 mg/kg, OCA 30 mg/kg once daily, 4 wks
  fibrosis evidenced by staining of collagen (liver histology): reduction of fibrosis
[1]; FIG. 2A, maraviroc 45 mg/kg, OCA 30 mg/kg once daily, 4 wks, listed as maraviroc
  fibrosis evidenced by staining of collagen (liver histology): effective in reducing fibrosis; also recorded: more effective than OCA in reducing fibrosis
[1]; FIG. 3A, maraviroc 45 mg/kg, OCA 30 mg/kg once daily, 4 wks
  fibrosis score: reduction of fibrosis score
[1]; FIG. 4A, maraviroc 45 mg/kg, OCA 30 mg/kg once daily, 4 wks
  liver inflammation: reduction of liver inflammation
[1]; FIG. 5A, maraviroc 45 mg/kg, OCA 30 mg/kg once daily, 4 wks
  hepatocyte ballooning score: reduction of the hepatocyte ballooning score
[1]; FIG. 6A, maraviroc 45 mg/kg, OCA 30 mg/kg once daily, 4 wks
  steatosis: marginal effect on steatosis
[8]
  liver fibrosis: Reducing liver fibrosis has been observed
